Results from patent EP4206196A1, “PYRIMIDINE SUBSTITUTED DERIVATIVES AS TYK2 INHIBITORS” (Almirall S.A., priority 2021, dated 2023).
Read-outs that look alike come from different tables or passages of the source.

Experiments:
[1] = biological target: T1, TYK2 (JH2domain-pseudokinase) (Homo sapiens, UniProt P29597); experiment: TYK2 JH2 domain binding assay (KINOMEscan)
T1 construct: TYK2 (JH2domain-pseudokinase)-tagged T7 phage strains were prepared in an E. coli host derived from the BL21 strain; made in house; host or cells: E. coli BL21-derived host (T7 phage) or HEK-293 cells
T1 sequence (P29597 589-875 limits assumed): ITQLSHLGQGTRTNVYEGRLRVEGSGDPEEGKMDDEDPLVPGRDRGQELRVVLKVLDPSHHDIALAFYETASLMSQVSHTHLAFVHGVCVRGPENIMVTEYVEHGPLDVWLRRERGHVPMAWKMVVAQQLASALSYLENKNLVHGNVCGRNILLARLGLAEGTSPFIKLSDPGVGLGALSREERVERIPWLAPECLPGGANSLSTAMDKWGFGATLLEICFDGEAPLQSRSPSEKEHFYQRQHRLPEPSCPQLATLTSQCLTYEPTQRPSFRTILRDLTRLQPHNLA
Outline: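 Competition binding of DNA-tagged TYK2 JH2 pseudokinase domain against immobilised affinity ligand, 1 h at room temperature in SeaBlock/PBS/Tween/DTT buffer with about 1% DMSO. Bound kinase eluted and quantified by qPCR. Kd taken from 11-point 3-fold series, usually 30,000 nM top, fitted by Levenberg-Marquardt nonlinear least squares.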

[2] = tested on: STAT1/3 through TYK2/JAK1; experiment: IFNa induced STAT phosphorylation in HEK293 cells (SIE-bla reporter gene); assay type: cell-based; conditions: HEK293T-sie-bla cells, IFNa at EC80, 4 hours, read-out: Inhibition of IFNa induced STAT phosphorylation HEK293 cells IC50
Outline: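 HEK293T cells carrying a SIE-driven β-lactamase reporter were co-treated with compound (1/5 serial dilution, 10 points, 0.1% DMSO final) and IFNa at EC80 for 4 h at 37°C. β-Lactamase substrate was added to stop the stimulation, followed by overnight dark incubation and FRET read. IC50 from a four-parameter logistic fit.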

Kd [1] [nM]	IC50 ([2]; Homo sapiens, HEK293) [nM]	IC50 [2] [nM]	Compound
1 to 10	10 to 100	–	Cc1cc(Nc2cc(Nc3ncc(-c4ncn(C)n4)cc3N(C)S(C)(=O)=O)ncn2)nc(C)n1 [Example 123, N-[2-[[6-[(2,6-dimethylpyrimidin-4-yl)amino]pyrimidin-4-yl]amino]-5-(1-methyl-1,2,4-triazol-3-yl)-3-pyridyl]-N-methyl-methanesulfonamide]
> 10	> 1000	–	Cc1cc(Nc2cc(Nc3ccccc3OC(F)(F)F)ncn2)nc(C)n1 [Example 10, N6-(2,6-dimethylpyrimidin-4-yl)-N4-[2-(trifluoromethoxy)phenyl] pyrimidine-4,6-diamine]
< 0.2	< 10	–	[2H]C([2H])([2H])N(c1cc(-c2nnc(C)n2C)cnc1Nc1cc(Nc2cc(C)nc(C)n2)ncn1)S(C)(=O)=O [Example 136, N-[2-[[6-[(2,6-dimethylpyrimidin-4-yl)amino]pyrimidin-4-yl]amino]-5-(4,5-dimethyl-1,2,4-triazol-3-yl)-3-pyridyl]-N-(trideuteriomethyl)methanesulfonamide]
< 0.2	10 to 100	–	Cc1cc(Nc2cc(Nc3cccc(F)c3N(C)S(C)(=O)=O)ncn2)nc(C)n1 [Example 76, N-[2-[[6-[(2,6-dimethylpyrimidin-4-yl)amino]pyrimidin-4-yl]amino]-6-fluorophenyl]-N-methylmethanesulfonamide]
0.2 to 1	100 to 1000	–	Cc1cc(Nc2cc(Nc3ncc(-c4nc(C)nn4C)cc3N(C)S(C)(=O)=O)ncn2)ncn1 [Example 155, N-[5-(2,5-dimethyl-1,2,4-triazol-3-yl)-2-[[6-[(6-methylpyrimidin-4-yl)amino]pyrimidin-4-yl]amino]-3-pyridyl]-N-methyl-methanesulfonamide]
< 0.2	< 10	–	COCc1ccc(Nc2cc(Nc3cc(C)nc(C)n3)ncn2)c(N(C)S(C)(=O)=O)c1 [Example 115, N-[2-[[6-[(2,6-dimethylpyrimidin-4-yl)amino]pyrimidin-4-yl]amino]-5-(methoxymethyl)phenyl]-N-methyl-methanesulfonamide]
< 0.2	10 to 100	–	Cc1ccc(Nc2cc(Nc3cc(C)nc(C)n3)ncn2)c(N(C)S(C)(=O)=O)c1 [Example 69, N-[2-[[6-[(2,6-dimethylpyrimidin-4-yl)amino]pyrimidin-4-yl]amino]-5-methyl-phenyl]-N-methyl-methanesulfonamide]
< 0.2	< 10	–	COc1cc(-c2cnn(C)c2C)cnc1Nc1cc(Nc2cc(C)nc(C)n2)ncn1 [Example 146, N6-[5-(1,5-dimethylpyrazol-4-yl)-3-methoxy-2-pyridyl]-N4-(2,6-dimethylpyrimidin-4-yl)pyrimidine-4,6-diamine]
< 0.2	10 to 100	–	Cc1cc(Nc2cc(Nc3ncccc3N(C)S(C)(=O)=O)ncn2)nc(C)n1 [Example 120, N-[2-[[6-[(2,6-dimethylpyrimidin-4-yl)amino]pyrimidin-4-yl]amino]-3-pyridyl]-N-methyl-methanesulfonamide]
< 0.2	< 10	–	Cc1cc(Nc2cc(Nc3ccc(C4=CCCCO4)cc3N(C)S(C)(=O)=O)ncn2)nc(C)n1 [Example 92, N-[5-(3,4-dihydro-2H-pyran-6-yl)-2-[[6-[(2,6-dimethylpyrimidin-4-yl)amino]pyrimidin-4-yl]amino]phenyl]-N-methylmethanesulfonamide]
0.2 to 1	> 1000	–	Cc1cc(Nc2cc(Nc3ccccc3P(C)(C)=O)ncn2)nc(C)n1 [Example 28, 4-N-(2-dimethylphosphorylphenyl)-6-N-(2,6-dimethylpyrimidin-4-yl)pyrimidine-4,6-diamine]
< 0.2	< 10	–	Cc1c(-c2cnc(Nc3cc(NC(=O)C4CC4)ncn3)c(S(C)(=O)=O)c2)cnn1C [Example 151, N-[6-[[5-(1,5-dimethylpyrazol-4-yl)-3-methylsulfonyl-2-pyridyl]amino]pyrimidin-4-yl]cyclopropanecarboxamide]
< 0.2	< 10	–	Cc1cc(Nc2cc(Nc3ccc(C4CCCOC4)cc3N(C)S(C)(=O)=O)ncn2)nc(C)n1 (stereo not shown) [Example 105, N-[2-[[6-[(2,6-dimethylpyrimidin-4-yl)amino]pyrimidin-4-yl]amino]-5-tetrahydropyran-3-yl-phenyl]-N-methyl-methanesulfonamide]
0.2 to 1	–	100 to 1000	N4-(2,6-dimethylpyrimidin-4-yl)-N6-[2-ethoxy-3-(1-methyl-1,2,4-triazol-3-yl)phenyl]pyrimidine-4,6-diamine [Example 45]
1 to 10	> 1000	–	COc1c(Nc2cc(Nc3cc(C)nc(C)n3)ncn2)ccc(-c2ncn(C)n2)c1C [Example 83, N6-(2,6-dimethylpyrimidin-4-yl)-N4-[2-methoxy-3-methyl-4-(1-methyl-1,2,4-triazol-3-yl)phenyl]pyrimidine-4,6-diamine]
< 0.2	10 to 100	–	COc1c(Nc2cc(Nc3cc(C)nc(C)n3)ncn2)ncc(-c2cnn(C)c2C)c1C [Example 141, N6-[5-(1,5-dimethylpyrazol-4-yl)-3-methoxy-4-methyl-2-pyridyl]-N4-(2,6-dimethylpyrimidin-4-yl)pyrimidine-4,6-diamine]
0.2 to 1	100 to 1000	–	COc1c(Nc2cc(Nc3cc(C)ncn3)ncn2)cc(C)cc1-c1ncn(C)n1 [Example 104, 4-N-[2-methoxy-5-methyl-3-(1-methyl-1,2,4-triazol-3-yl)phenyl]-6-N-(6-methylpyrimidin-4-yl)pyrimidine-4,6-diamine]
< 0.2	10 to 100	–	Cc1cc(Nc2cc(Nc3ccc(C4CCOCC4)cc3N(C)S(C)(=O)=O)ncn2)nc(C)n1 [Example 106, N-[2-[[6-[(2,6-dimethylpyrimidin-4-yl)amino]pyrimidin-4-yl]amino]-5-tetrahydropyran-4-yl-phenyl]-N-methyl-methanesulfonamide]
< 0.2	< 10	–	Cc1cc(Nc2cc(Nc3nc(C)c(-c4cnn(C)c4)cc3N(C)S(C)(=O)=O)ncn2)ncn1 [Example 162, N-methyl-N-[6-methyl-5-(1-methylpyrazol-4-yl)-2-[[6-[(6-methylpyrimidin-4-yl)amino]pyrimidin-4-yl]amino]-3-pyridyl]methanesulfonamide]
1 to 10	> 1000	–	COc1c(Nc2cc(Nc3cc(C)nc(C)n3)ncn2)cccc1-c1ccnnc1 [Example 42, N6-(2,6-dimethylpyrimidin-4-yl)-N4-(2-methoxy-3-pyridazin-4-yl-phenyl)pyrimidine-4,6-diamine]
1 to 10	> 1000	–	COc1cc(F)ccc1Nc1cc(Nc2cc(C)nc(C)n2)ncn1 [Example 21, N4-(2,6-dimethylpyrimidin-4-yl)-N6-(4-fluoro-2-methoxy-phenyl)pyrimidine-4,6-diamine]
0.2 to 1	10 to 100	–	CN=S(C)(=O)c1c(C)cccc1Nc1cc(Nc2cc(C)nc(C)n2)ncn1 (stereo not shown) [Example 116, N6-(2,6-dimethylpyrimidin-4-yl)-N4-[2-(N,S-dimethylsulfonimidoyl)-3-methyl-phenyl]pyrimidine-4,6-diamine]
1 to 10	> 1000	–	COc1c(-c2noc(C(F)(F)F)n2)ccnc1Nc1cc(Nc2cc(C)nc(C)n2)ncn1 [Example 143, N6-(2,6-dimethylpyrimidin-4-yl)-N4-[3-methoxy-4-[5-(trifluoromethyl)-1,2,4-oxadiazol-3-yl]-2-pyridyl]pyrimidine-4,6-diamine]
< 0.2	10 to 100	–	Cc1cc(Nc2cc(Nc3ncccc3P(C)(C)=O)ncn2)nc(C)n1 [Example 145, N6-(3-dimethylphosphoryl-2-pyridyl)-N4-(2,6-dimethylpyrimidin-4-yl)pyrimidine-4,6-diamine]
1 to 10	100 to 1000	–	Cc1cc(Nc2cc(Nc3c(F)cc(-c4cnn(C)c4C)cc3S(C)(=O)=O)ncn2)nc(C)n1 [Example 96, N4-[4-(1,5-dimethylpyrazol-4-yl)-2-fluoro-6-methylsulfonyl-phenyl]-N6-(2,6-dimethylpyrimidin-4-yl)pyrimidine-4,6-diamine]
< 0.2	10 to 100	–	COc1c(Nc2cc(Nc3cc(C)nc(C)n3)ncn2)cccc1-c1noc(CN2CCOCC2)n1 [Example 62, N6-(2,6-dimethylpyrimidin-4-yl)-N4-[2-methoxy-3-[5-(morpholinomethyl)-1,2,4-oxadiazol-3-yl]phenyl]pyrimidine-4,6-diamine]
< 0.2	10 to 100	–	Cc1c(-c2cnc(Nc3cc(NC(=O)C4CC4)ncn3)c(P(C)(C)=O)c2)cnn1C [Example 161, N-[6-[[3-dimethylphosphoryl-5-(1,5-dimethylpyrazol-4-yl)-2-pyridyl]amino]pyrimidin-4-yl]cyclopropanecarboxamide]
0.2 to 1	100 to 1000	–	COc1c(C)ccnc1Nc1cc(Nc2cc(C)nc(C)n2)ncn1 [Example 132, N4-(2,6-dimethylpyrimidin-4-yl)-N6-(3-methoxy-4-methyl-2-pyridyl)pyrimidine-4,6-diamine]
1 to 10	> 1000	–	COc1cc(C(=O)N2CCCC2)ccc1Nc1cc(Nc2cc(C)nc(C)n2)ncn1 [Example 78, [4-[[6-[(2,6-dimethylpyrimidin-4-yl)amino]pyrimidin-4-yl]amino]-3-methoxy-phenyl]-pyrrolidin-1-yl-methanone]
